Assay results taken from US9051296B2, “Aryl carboxamide derivatives as TTX-S blockers” (RaQualia Pharma Inc., priority 2009, dated 2015).
Read-outs that look alike come from different tables or passages of the source.

What was measured:
human NaV1.3 channels = molecular target: T1, human NaV1.3 channels (Homo sapiens, UniProt Q9NY46); assay: FRET Assay (Method A), human NaV1.3; assay type: cell-based; conditions: read-out: against Nav1.3 in FRET Assay (Method A)
T1 construct: expressed in transfected cells; host or cells: HEK293
Experimental: (§1) The ability of the aryl substituted carboxamid derivatives of the formula (I) to inhibit the NaV1.3, Nav1.7 and Nav1.5 channels was measured by Fluorescence Resonance Energy Transfer (FRET) assay and electrophysiology assay described below.
This screen was used to determine the effects of compounds on human NaV1.3, human Nav1.7, and human Nav1.5 channels, utilising the cell imaging technology by Hamamatsu Photonics's Functional Drug Screening System (FDSS). The change of membrane potential was monitored with fluorescent membrane potential dye pair, oxonol (DiSBAC2(3)) and coumarin (CC2-DMPE), using FRET technology. […]
(§2) The data were analyzed and reported as normalized ratios of intensities measured in the 465 nm and 575 nm channels. […]
(§3) “FI465B”=the mean of fluorescence intensity as baseline (before Na+ ligand addition) at 465 nm
“FI575B”=the mean of fluorescence intensity as baseline (before Na+ ligand addition) at 575 nm
“FI465Max”=maximum fluorescence intensity at 465 nm after Na+ stimulation
“FI575 Min”=minimum fluorescence intensity at 575 nm after Na+ stimulation
This analysis was performed using a computerized specific program designed for FDSS generated data. Fluorescence ratio values were plotted using XLfit to determine an IC50 value for each compound.

human Nav1.7 channels = molecular target: T2, human Nav1.7 channels (Homo sapiens, UniProt Q15858); assay: FRET Assay (Method A), human Nav1.7; assay type: cell-based
T2 construct: expressed in transfected cells; host or cells: CHO
Experimental: as §1
This screen was used to determine the effects of compounds on human NaV1.3, human Nav1.7, and human Nav1.5 channels, utilising the cell imaging technology by Hamamatsu Photonics's Functional Drug Screening System (FDSS). The change of membrane potential was monitored with fluorescent membrane potential dye pair, oxonol (DiSBAC2(3)) and coumarin (CC2-DMPE), using FRET technology.
CHO cells expressing human NaV1.7 channels were grown in T225 flasks, in a 5% CO2 humidified incubator to about 80% confluence. Media composition consisted of HAM/F12 with Glutamax I, 10% FCS, 100 units/ml Penicillin and 100 microgram/ml Hygromycin.
Protocol: • Seeded each cell lines (1.5×10^4 cells/well) into poly-D-lysine coated 384-well plates prior to experimentation. • Incubated at 37° C. in 5% CO2 for 24 hours. • Washed each well with buffer #1 (140 mM NaCl, 4.5 mM KCl, 10 mM D-Glucose, 2 mM CaCl2, 1 mM MgCl2, 10 mM HEPES, pH 7.4 adjusted with NaOH) twice. • Added 1st loading solution containing 5 microM CC2-DMPE and 0.02% Pluronic F-127 in buffer #1. • Incubated the plate at room temperature in dark for 0.5 hours. • Washed each well with buffer #2 (160 mM Choline, 10 mM D-Glucose, 0.1 mM CaCl2, 1 mM MgCl2, 10 mM HEPES, pH 7.4 adjusted with KOH) twice. • Added 2nd loading solution containing 15 microM DiSBAC2(3), 0.5 mM VABSC-1, 10 microM veratridine and 0.004% Pluronic F-127 in buffer #2. • Added compound solutions into the assay plate for 30 minutes under the dark at room temperature. • Measured the activity by FDSS.
as §2, §3
“FI575B”=the mean of fluorescence intensity as baseline (before Na+ ligand addition) at 575 nm […]

Human HERG = molecular target: T3, Human HERG (Homo sapiens, UniProt Q12809); assay: Human dofetilide binding assay
T3 construct: expressed in transfected cells; host or cells: HEK293S (membrane homogenate)
Experimental: Human Dofetilide Binding Assay
Human HERG transfected HEK293S cells were prepared and grown in-house. The collected cells were suspended in 50 mM Tris-HCl (pH 7.4 at 4° C.) and homogenized using a hand held Polytron PT 1200 disruptor set at full power for 20 sec on ice. The homogenates were centrifuged at 48,000×g at 4° C. for 20 min. The pellets were then resuspended, homogenized, and centrifuged once more in the same manner. The final pellets were resuspended in an appropriate volume of 50 mM Tris-HCl, 10 mM KCl, 1 mM MgCl2 (pH 7.4 at 4° C.), homogenized, aliquoted and stored at −80° C. until use. An aliquot of membrane fractions was used for protein concentration determination using BCA protein assay kit (PIERCE) and ARVOsx plate reader (Wallac). Binding assays were conducted in a total volume of 30 microL in 384-well plates. The activity was measured by PHERAstar (BMG LABTECH) using fluorescence polarization technology. Ten microL of test compounds were incubated with 10 microL of fluorescence ligand (6 nM Cy3B tagged dofetilide derivative) and 10 microL of membrane homogenate (6 microg protein) for 120 minutes at room temperature. Nonspecific binding was determined by 10 microM E4031 at the final concentration.

[1] = Table 5, method A or B not stated, read-out: IC50 in the Nav1.7 FRET Assay

T2 sequence (Q15858 whole entry): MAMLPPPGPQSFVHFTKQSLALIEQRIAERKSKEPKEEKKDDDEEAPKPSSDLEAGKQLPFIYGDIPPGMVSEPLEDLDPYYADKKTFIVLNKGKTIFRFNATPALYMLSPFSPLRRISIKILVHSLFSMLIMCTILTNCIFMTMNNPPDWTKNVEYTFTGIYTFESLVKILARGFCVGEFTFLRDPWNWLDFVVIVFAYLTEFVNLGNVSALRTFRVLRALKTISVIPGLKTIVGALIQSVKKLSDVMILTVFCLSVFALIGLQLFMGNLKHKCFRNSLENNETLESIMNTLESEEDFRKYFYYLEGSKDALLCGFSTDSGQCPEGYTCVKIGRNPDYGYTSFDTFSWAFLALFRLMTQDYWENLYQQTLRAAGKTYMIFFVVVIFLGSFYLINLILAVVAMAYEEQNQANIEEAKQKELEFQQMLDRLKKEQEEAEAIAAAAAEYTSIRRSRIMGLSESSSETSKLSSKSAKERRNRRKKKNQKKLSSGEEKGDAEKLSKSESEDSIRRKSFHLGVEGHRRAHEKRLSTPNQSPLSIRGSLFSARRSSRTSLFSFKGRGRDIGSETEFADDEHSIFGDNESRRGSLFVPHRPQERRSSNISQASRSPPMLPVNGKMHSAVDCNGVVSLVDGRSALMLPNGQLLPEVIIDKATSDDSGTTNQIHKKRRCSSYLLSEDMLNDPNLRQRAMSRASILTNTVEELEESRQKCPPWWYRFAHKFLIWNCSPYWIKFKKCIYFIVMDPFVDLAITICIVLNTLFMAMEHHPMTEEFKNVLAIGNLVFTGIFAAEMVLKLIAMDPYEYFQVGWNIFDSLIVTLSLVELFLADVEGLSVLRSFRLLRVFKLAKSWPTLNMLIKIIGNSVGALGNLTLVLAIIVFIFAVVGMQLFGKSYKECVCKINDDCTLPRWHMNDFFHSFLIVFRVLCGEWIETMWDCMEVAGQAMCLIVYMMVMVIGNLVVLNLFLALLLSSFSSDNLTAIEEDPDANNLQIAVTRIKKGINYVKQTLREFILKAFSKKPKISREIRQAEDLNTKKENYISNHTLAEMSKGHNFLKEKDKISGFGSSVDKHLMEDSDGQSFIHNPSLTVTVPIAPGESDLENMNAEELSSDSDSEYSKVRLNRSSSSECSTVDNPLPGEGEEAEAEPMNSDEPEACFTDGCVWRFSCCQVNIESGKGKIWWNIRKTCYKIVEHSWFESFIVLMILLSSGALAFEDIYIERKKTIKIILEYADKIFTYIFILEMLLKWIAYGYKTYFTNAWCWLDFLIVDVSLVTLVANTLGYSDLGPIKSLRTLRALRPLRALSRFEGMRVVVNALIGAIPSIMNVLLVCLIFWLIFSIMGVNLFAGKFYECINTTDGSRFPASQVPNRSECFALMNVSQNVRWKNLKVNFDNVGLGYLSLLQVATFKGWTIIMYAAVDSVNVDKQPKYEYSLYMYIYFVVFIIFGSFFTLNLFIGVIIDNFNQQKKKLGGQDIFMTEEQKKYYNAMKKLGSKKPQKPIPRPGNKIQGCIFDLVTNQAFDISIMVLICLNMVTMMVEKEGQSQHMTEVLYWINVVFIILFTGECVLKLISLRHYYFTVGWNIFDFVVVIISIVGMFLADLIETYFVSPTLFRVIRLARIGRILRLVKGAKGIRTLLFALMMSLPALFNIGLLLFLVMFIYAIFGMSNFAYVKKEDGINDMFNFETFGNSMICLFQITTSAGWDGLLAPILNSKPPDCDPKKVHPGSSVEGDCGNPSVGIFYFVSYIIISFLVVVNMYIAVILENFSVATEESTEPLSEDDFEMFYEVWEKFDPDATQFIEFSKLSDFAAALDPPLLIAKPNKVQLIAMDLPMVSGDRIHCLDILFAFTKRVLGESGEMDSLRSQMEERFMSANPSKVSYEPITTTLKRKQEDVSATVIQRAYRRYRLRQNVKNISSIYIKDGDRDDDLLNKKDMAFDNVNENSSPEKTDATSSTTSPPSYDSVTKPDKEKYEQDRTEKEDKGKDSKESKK
T3 sequence (Q12809 whole entry): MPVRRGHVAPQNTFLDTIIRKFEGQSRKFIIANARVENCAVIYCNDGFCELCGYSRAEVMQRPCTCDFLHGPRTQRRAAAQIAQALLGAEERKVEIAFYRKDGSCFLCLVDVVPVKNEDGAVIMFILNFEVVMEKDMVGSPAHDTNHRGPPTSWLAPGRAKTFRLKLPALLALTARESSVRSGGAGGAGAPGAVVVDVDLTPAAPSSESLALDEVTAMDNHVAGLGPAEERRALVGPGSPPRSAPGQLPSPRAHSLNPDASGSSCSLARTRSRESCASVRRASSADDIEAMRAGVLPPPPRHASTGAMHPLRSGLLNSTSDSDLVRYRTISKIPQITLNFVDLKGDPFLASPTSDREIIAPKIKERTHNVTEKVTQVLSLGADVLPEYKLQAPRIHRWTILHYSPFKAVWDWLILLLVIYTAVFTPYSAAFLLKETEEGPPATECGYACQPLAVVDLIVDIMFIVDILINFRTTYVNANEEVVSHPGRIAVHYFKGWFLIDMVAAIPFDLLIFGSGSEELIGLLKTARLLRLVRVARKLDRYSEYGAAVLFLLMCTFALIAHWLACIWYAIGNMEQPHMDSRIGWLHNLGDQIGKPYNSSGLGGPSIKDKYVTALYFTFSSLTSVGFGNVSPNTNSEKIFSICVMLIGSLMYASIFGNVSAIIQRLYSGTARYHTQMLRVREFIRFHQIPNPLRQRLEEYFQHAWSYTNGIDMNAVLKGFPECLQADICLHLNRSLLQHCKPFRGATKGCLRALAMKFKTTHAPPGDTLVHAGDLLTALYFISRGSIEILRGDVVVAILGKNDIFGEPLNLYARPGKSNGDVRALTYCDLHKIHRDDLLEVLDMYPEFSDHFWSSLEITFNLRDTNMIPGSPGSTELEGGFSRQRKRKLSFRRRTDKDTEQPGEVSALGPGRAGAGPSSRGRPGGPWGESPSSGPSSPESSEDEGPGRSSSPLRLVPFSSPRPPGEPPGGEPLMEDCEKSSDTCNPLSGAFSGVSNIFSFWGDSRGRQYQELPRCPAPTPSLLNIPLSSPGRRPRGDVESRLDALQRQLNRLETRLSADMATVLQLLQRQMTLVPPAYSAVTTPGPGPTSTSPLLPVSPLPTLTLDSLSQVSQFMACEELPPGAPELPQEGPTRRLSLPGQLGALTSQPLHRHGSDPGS
T1 sequence (Q9NY46 whole entry): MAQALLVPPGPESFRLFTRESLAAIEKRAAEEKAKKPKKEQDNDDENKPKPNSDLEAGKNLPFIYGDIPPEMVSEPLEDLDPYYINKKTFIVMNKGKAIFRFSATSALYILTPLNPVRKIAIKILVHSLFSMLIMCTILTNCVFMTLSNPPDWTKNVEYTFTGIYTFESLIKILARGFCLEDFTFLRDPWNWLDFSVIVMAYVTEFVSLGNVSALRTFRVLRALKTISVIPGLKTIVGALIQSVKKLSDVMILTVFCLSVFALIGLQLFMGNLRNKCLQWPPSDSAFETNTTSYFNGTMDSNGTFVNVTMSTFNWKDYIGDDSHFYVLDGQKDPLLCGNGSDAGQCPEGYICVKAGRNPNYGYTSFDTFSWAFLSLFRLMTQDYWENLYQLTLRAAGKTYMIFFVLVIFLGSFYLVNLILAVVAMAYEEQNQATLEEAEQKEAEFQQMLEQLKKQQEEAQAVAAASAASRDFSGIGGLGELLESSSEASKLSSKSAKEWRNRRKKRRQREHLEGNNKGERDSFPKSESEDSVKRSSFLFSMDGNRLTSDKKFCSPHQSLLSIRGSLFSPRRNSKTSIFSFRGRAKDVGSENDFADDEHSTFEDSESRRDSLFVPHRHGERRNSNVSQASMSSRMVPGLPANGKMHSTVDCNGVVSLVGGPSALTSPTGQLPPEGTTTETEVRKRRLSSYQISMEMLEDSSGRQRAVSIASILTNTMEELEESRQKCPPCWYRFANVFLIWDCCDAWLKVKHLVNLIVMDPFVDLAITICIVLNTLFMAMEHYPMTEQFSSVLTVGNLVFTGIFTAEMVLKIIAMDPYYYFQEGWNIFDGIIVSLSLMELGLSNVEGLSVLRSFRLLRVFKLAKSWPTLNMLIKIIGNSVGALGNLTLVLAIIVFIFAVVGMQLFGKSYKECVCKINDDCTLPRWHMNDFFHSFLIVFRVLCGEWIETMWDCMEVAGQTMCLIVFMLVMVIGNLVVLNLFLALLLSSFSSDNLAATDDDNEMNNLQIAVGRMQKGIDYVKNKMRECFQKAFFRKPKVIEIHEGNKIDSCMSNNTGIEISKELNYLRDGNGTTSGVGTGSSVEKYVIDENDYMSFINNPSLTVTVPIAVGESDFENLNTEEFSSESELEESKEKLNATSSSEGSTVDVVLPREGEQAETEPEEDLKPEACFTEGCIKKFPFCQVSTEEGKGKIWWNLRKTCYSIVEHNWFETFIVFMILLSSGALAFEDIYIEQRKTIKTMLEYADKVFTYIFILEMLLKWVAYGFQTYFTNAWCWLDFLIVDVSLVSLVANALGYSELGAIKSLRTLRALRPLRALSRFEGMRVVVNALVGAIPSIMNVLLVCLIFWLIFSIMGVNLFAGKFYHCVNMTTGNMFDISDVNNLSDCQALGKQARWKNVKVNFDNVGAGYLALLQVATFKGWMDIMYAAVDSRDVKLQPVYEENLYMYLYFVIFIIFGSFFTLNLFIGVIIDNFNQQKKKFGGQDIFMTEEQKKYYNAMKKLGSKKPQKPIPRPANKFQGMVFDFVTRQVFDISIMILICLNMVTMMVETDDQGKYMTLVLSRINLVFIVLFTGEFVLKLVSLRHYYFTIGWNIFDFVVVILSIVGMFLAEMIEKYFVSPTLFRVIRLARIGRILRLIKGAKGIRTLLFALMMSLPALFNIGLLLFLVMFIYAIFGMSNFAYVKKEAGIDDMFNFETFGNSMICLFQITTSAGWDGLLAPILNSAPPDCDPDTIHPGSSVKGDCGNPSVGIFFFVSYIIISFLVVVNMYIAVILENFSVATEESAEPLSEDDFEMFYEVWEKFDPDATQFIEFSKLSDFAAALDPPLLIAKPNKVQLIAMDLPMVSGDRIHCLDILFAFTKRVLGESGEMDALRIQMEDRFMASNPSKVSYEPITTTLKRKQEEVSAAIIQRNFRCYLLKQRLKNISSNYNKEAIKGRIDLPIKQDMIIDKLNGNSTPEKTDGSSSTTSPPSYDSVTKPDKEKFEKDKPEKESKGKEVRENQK

| SMILES | IC50 (human NaV1.3 channels) [µM] | IC50 (human Nav1.7 channels; read-out: against Nav1.7 in FRET Assay (Method A)) [µM] | IC50 (Human HERG) [µM] | IC50 (human Nav1.7 channels; [1]) [µM] |
| --- | --- | --- | --- | --- |
| O=c1[nH]ccnc1CN1CCC(COc2ccccc2)CC1 [Example 198 in WO 2003/084948, 3-((4-(phenoxymethyl)piperidin-1-yl)methyl)pyrazin-2(1H)-one, reference compound] | > 30 | 15 | – | – |
| O=C(c1cnc2ccccc2c1)N1CCC(Oc2ccc(Cl)cc2)CC1 [Example 10, (4-(4-chlorophenoxy)piperidin-1-yl)(quinolin-3-yl) methanone] | – | – | 7.91 | 0.36 |
| Clc1ccc(OC2CCN(Cc3cnc4ccccc4c3)CC2)cc1 [Example 726] | – | – | 0.28 | 0.47 |
